Converted amounts (≈) assume the structure as drawn.
Key:
[1] = cited from earlier work
[2] = cited from earlier work; remark: listed apart in the source
[3] = Neutralization of an aqueous solution of SAM-e tosylate with buffering agents to pH 7; type: physicochemical; conditions: for Final pH: SAMe tosylate 400 mg/100 mL after addition of the neutralizing agent; for Initial pH / Stabilization time: SAMe tosylate 400 mg/100 mL; for Initial pH: before addition of the neutralizing agent; for Neutralizing agents added amount: added to SAMe tosylate 400 mg/100 mL until neutralization
Description: (§1) After measuring the pH, the solution was gradually added with buffering substance until neutralization and a pH 7 value were reached. As it can be seen from the table below (Table 9), the amount of Lysine and Potassium Citrate tribasic appear to be excessive to consider their use in commercial pharmaceutical forms. More precisely, from the table it can be noted that 15.4 g of Lysine fail to bring the SAMe solution to neutralization (the pH value remains 4).
SAMe tosilate concentration: 400 mg/100 mL

[4] = Neutralization of aqueous solutions of other acid active ingredients with L-Arginine; type: physicochemical; conditions: aqueous solution containing 1 g of the active ingredient
Description: as §1
Based on the excellent neutralization results obtained with L-Arginine, the same method was used to analyze the amount of L-Arginine necessary to neutralize a solution including other acid active ingredients (results below): • An aqueous solution containing 1 g of N-Acetyl-Cysteine is neutralized with 1.086 g of L-Arginine • An aqueous solution containing 1 g of L-Acetyl-Carnitine is neutralized with 0.736 g of L-Arginine

Structure (SMILES): O=C(O)CCCC[C@@H]1CCSS1 (racemic) [Lipoic acid]
- pKa [1]: 4.52

Structure (SMILES): CC(=O)Oc1ccccc1C(=O)O [Acetylsalicylic acid]
- Solubility in water [2]: 1460 µg/mL (≈ 8.1 mM)

Structure (SMILES): N=C(N)NCCC[C@H](N)C(=O)O [Arginine]
- Final pH [3]: 7.0
- Initial pH [3]: 2.08
- Neutralizing agents added amount [3]: 375 mg

Structure (SMILES): O=C1O[C@H]([C@@H](O)CO)C(O)=C1O [Ascorbic Acid]
- pKa [1]: 4.36

Structure (SMILES): N[C@@H](CC(=O)O)C(=O)O [Aspartic Acid]
- pKa [1]: 1.7

Structure (SMILES): N[C@@H](CCC(=O)O)C(=O)O [Glutamic acid]
- pKa [1]: 1.88

Structure (SMILES): CC(C)(O)CC(=O)O [Hydroxy-methyl-butyrate, 3-hydroxy-3-methylbutyric acid]
- pKa [1]: 4.4
- Solubility in water [2]: 15000 µg/mL (≈ 127 mM)

Structure (SMILES): CC(=O)O[C@H](CC(=O)[O-])C[N+](C)(C)C [L-Acetyl Carnitine]
- Amount of L-Arginine needed to neutralize [4]: 0.736 g
- pKa [1]: 4.09
- Solubility in water [2]: 142000 µg/mL (≈ 699 mM)

Structure (SMILES): C[N+](C)(C)C[C@H](O)CC(=O)[O-] [Levocarnitine]
- pKa [1]: 4.2
- Solubility in water [2]: 5330 µg/mL (≈ 33.1 mM)

Structure (SMILES): [O]=[Mg] [Light magnesium oxide]
- Final pH [3]: 7.1
- Initial pH [3]: 2.08
- Neutralizing agents added amount [3]: 44.91 mg

Structure (SMILES): NCCCC[C@H](N)C(=O)O [Lysine]
- Amount of neutralizing agent added ([3]; SAMe solution, neutralization not reached): 15.4 g
- Final pH [3]: 4
- Initial pH [3]: 2.08
- Neutralizing agents added amount [3]: 15402 mg

Structure (SMILES): CC(=O)N[C@@H](CS)C(=O)O [N-Acetyl Cysteine]
- Amount of L-Arginine needed to neutralize [4]: 1.086 g
- Solubility in water [2]: 5090 µg/mL (≈ 31.2 mM)

Structure (SMILES): O=C([O-])CC(O)(CC(=O)[O-])C(=O)[O-].[K+].[K+].[K+] [Potassium citrate tribasic]
- Stabilization time [3]: <3 min
- Final pH [3]: 7.0
- Initial pH [3]: 2.10
- Neutralizing agents added amount [3]: 14943 mg

Structure (SMILES): CC(=O)SC[C@H](NC(=O)CC[C@H](N)C(=O)O)C(=O)NCC(=O)O [S-acetyl-L-glutatione]
- pKa [1]: 1.75

Structure (SMILES): C[S+](CC[C@H](N)C(=O)[O-])C[C@H]1O[C@@H](n2cnc3c(N)ncnc32)[C@H](O)[C@@H]1O (stereo partly drawn) [SAMe, S-Adenosyl-l-methionine]
- pKa [1]: 1.7
- Solubility in water [2]: 1190 µg/mL (≈ 2.99 mM)

Structure (SMILES): O=C([O-])O.[Na+] [Sodium bicarbonate]
- Stabilization time [3]: <3 min
- Final pH [3]: 7.0
- Initial pH [3]: 2.08
- Neutralizing agents added amount [3]: 690 mg

Structure (SMILES): O=C([O-])[O-].[Na+].[Na+] [Sodium carbonate]
- Stabilization time [3]: <3 min
- Final pH [3]: 7.0
- Initial pH [3]: 2.10
- Neutralizing agents added amount [3]: 200 mg

Structure (SMILES): O=P([O-])([O-])[O-].[Na+].[Na+].[Na+] [Sodium phosphate tribasic]
- Stabilization time [3]: <3 min
- Final pH [3]: 7.0
- Initial pH [3]: 2.09
- Neutralizing agents added amount [3]: 510 mg

— patent US20220273690A1, “Edible Formulations Based on Active Ingredients and Arginine” (GRAAL S.R.L., priority 2019, published 2022)
